Structures can show the parent of a compound that is named as a salt.
Columns and labels:
cardiac contractility = experiment: Cardiac contractility in anesthetized dogs; format: in vivo, Mongrel dogs; details: Canis lupus familiaris, iv, i.v. bolus, read-out: ED50 (dose, i.v., which produced a peak increase of 50% over control)
Description: Mongrel dogs of either sex ranging in weight from 7 to 14 kg. were used. Anesthesia was induced with sodium pentobarbital (30 mg./kg., i.v.) and maintained with supplemental doses as required. A positive-pressure pump was used to ventilate the dogs through an endotracheal tube (18 strokes/minute, 20 ml./kg. stroke 1), and a heating pad kept the body temperature at 37-38°C. Femoral arterial blood pressure was measured through a polyethylene catheter filled with heparin solution (16 units/ml.) and connected to a Statham pressure transducer. A strain-gauge arch sutured to the right ventricle of the heart measured cardiac contractility. Tension on the gauge was adjusted to 50 g. and the gain of the recorder (Beckman dynograph) was set so that 50 g. caused a 10-mm. pen deflection; cardiac contractile tension was measured as millimeters of pen deflection or grams of tension. The drug was administered following a 30-45 minute equilibrium period as an i.v. bolus (2-5 ml.) in a normal saline vehicle. […] The maximum effects on contractility at various dose levels were calculated as a percent of control (control = 100 percent). The compound of Example 1 produced an ED50 (dose, i.v., which produced a peak increase of 50% over control) of 0.030 mg./kg. while the compound of Example 2 gave an ^ED50 of 6 mcg./kg.

[1] = tested on: Isolated Cat Papillary Muscles; experiment: Positive inotropic activity in isolated cat papillary muscles; design: species or system Cats; details: Felis catus, maximum contractility, isolated cat papillary muscle, read-out: contractility, percent of control (control = 100 percent); for activity at 100 µM: 10^-4 M; for activity at 10 µM: 10^-5 M
Description: Cats of either sex were anesthetized with Metofane (1,1-difluoro-2,2-dichloroethyl methyl ether, Pittman-Moore) their hearts immediately removed and the papillary muscles dissected and suspended in individual organ baths. A platinum hook secured one end of the muscle to an electrode mounted in the bottom of the bath, and a silk thread attached the tendon to a Statham isometric transducer. The baths contained Krebs-Henseleit solution (36°C., bubbled with 95 percent oxygen - 5 percent carbon dioxide) of the following millimolar composition: NaCl, 118; KCl, 4.5; CaCl2, 2.5; KH2PO4, 1.1; MgS04, 1.2; NaHCO3, 25; and glucose, 11.
A base-line tension of 1.5 g. was applied to each muscle. Square-wave pulses (5.0 msec. in duration, 20 percent above threshold voltage) delivered through the hook electrode and a second electrode positioned near the top of the muscle evoked 12 contractions/minute, which were recorded on a Grass polygraph. After the muscles were equilibrated for 60 minutes, drugs were introduced in normal saline to bring the final concentration of the drug to 10 5 or 10^-4 molar. Increases in contractility were tabulated as millimeters of pen deflection in excess of the baseline values. In each experiment the maximum contractility was measured. As a percent of control (control = 100 percent), the compound of Example 1 produced a contractility of 149% at 10^-5 M and 168% at 10^-4 M and the compound of Example 2 gave a contractility of 240% at 10^-5M and 326% at 10^-4M.

COc1cc(NS(C)(=O)=O)ccc1-c1nc2cnccc2[nH]1 [Example 1, 2-(2-Methoxy-4-methylsulfonamidophenyl)imidazo[4,5-c]pyridine]
ED50 (cardiac contractility): 0.03 mg/kg | activity at 100 µM [1]: 168% | activity at 10 µM [1]: 149%

COc1cc(OS(C)(=O)=O)ccc1-c1nc2cnccc2[nH]1 [Example 2, 4-(Imidazo[4,5-c]pyridin-2-yl)-3-methoxyphenol, methanesulfonate (ester) hydrochloride]
ED50 (cardiac contractility): 0.006 mg/kg | activity at 100 µM [1]: 326% | activity at 10 µM [1]: 240%
